# Measured values published in ChEMBL document CHEMBL1201862, “PubChem BioAssay data set” (2004).
# Calls of active or inactive are those of the source.
# Assays:
# [1] = Vero E6 cell cytotoxicity, dose response, cytotoxicity control for non-replicating M. tuberculosis project, secondary assay (AID 492998); format: functional, VeroE6; settings: Vero C1008
# cells = format: functional
# Beta-galactosidase = Beta-galactosidase (Escherichia coli, UniProt Q8VNN2); experiment: PubChem AID 485352; format: functional
# [2] = target: T1, Type-1 angiotensin II receptor (Homo sapiens, UniProt P30556); experiment: antagonism of angiotensin II type 1 receptor – cell-based, uHTS hits, selectivity assay for APJ receptor antagonist project, dose response (AID 463214); format: functional;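 also: antagonist potency against angiotensin II stimulated AT1 response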
# T1 sequence (P30556 whole entry): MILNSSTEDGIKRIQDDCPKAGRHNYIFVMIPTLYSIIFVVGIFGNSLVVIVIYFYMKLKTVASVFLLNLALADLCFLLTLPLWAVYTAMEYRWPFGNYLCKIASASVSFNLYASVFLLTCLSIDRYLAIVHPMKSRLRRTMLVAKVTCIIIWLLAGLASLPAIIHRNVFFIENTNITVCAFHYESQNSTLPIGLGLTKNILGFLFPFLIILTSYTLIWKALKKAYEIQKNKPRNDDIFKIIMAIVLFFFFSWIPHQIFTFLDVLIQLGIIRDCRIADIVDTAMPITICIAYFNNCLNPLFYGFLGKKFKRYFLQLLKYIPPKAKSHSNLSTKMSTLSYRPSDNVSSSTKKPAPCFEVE
# [3] = target: Glucose-6-phosphate 1-dehydrogenase (Homo sapiens, UniProt P11413); experiment: inhibition of Homo sapiens G6PD, dose series – biochemical, fluorescence, selectivity assay for P. falciparum G6PD inhibitor project, dose response (AID 504792); format: functional
# [4] = target: Induced myeloid leukemia cell differentiation protein Mcl-1 (Homo sapiens, UniProt Q07820); format: functional
# Protein RecA = target: T2, Protein RecA (Mycobacterium tuberculosis, UniProt P9WHJ3); experiment: Fluorescence Cell-Free Homogeneous Dose Retest to Identify Inhibitors of RecA-Intein Splicing Activity. [Related pubchem assays (depositor defined):AID2097, AID2223, AID489010, AID492950]; format: functional
# T2 sequence (P9WHJ3 whole entry): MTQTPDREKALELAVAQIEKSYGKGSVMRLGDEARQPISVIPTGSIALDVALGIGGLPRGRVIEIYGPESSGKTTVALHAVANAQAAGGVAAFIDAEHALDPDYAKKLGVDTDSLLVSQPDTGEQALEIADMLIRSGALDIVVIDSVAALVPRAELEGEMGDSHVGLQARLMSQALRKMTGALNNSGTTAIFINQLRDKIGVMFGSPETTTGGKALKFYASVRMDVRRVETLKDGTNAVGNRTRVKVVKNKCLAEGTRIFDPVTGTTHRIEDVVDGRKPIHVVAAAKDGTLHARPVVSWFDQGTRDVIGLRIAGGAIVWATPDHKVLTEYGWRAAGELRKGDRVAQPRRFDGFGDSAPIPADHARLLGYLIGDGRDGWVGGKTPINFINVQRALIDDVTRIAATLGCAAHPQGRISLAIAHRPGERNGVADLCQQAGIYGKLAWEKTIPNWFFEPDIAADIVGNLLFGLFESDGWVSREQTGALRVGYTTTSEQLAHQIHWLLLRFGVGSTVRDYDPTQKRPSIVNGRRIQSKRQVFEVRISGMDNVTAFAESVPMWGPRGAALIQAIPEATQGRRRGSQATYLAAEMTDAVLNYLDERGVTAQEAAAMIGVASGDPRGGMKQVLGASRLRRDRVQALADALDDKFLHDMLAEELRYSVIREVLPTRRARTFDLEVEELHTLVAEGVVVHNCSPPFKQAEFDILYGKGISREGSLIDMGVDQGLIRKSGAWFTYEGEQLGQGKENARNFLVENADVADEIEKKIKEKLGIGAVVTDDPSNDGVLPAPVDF
# [5] = target: T3, Replicative DNA helicase DnaB (Mycobacterium tuberculosis, UniProt P9WMR3); experiment: DnaB intein splicing inhibitors, dose response, biochemical, cell-free fluorescence (AID 449749); format: functional
# T3 sequence (P9WMR3 whole entry): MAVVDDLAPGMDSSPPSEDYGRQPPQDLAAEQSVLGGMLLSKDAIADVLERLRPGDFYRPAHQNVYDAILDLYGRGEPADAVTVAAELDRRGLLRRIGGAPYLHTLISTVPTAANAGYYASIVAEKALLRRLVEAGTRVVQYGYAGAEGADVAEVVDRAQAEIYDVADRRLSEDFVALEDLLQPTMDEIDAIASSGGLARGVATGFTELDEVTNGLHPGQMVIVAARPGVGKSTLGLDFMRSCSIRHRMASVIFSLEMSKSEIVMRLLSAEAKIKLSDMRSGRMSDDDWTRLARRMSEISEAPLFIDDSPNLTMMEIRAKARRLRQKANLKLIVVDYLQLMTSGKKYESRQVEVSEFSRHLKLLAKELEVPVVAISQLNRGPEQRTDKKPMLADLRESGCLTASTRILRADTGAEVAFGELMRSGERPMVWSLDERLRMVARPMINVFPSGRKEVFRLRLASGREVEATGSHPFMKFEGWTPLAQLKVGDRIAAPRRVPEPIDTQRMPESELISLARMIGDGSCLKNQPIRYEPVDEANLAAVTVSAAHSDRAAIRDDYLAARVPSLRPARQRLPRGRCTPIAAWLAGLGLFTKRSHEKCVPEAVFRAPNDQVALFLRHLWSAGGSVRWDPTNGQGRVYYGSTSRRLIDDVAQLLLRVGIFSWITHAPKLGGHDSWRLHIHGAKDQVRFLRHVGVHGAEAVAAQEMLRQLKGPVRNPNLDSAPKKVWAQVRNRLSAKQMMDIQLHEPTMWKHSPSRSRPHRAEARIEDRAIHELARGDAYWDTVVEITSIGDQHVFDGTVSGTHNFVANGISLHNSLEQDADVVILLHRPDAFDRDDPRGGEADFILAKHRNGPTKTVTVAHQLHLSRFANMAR
# [6] = target: T4, Calpain-2 catalytic subunit (Sus scrofa, UniProt P43367); experiment: m-calpain protease blockers, concentration series – biochemical, fluorogenic peptide substrate, dose response (AID 1420); format: functional
# T4 sequence (P43367 whole entry): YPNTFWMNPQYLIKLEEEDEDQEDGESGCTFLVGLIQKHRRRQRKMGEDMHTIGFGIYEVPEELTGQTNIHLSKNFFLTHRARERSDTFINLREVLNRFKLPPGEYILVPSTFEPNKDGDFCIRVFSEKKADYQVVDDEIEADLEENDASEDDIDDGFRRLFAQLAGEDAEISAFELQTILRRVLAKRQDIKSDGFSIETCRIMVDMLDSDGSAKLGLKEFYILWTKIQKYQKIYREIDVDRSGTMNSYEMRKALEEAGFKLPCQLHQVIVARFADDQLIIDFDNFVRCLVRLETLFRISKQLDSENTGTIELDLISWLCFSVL
# Fatty acid synthase [7] = target: T5, Fatty acid synthase (Homo sapiens, UniProt P49327); experiment: inhibition of human FAS-TE enzyme activity – biochemical, endpoint fluorescence intensity, uHTS hits, dose response (AID 624327); format: functional;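 also: fluorescence from hydrolysis of an O-methyl fluorescein acyl ester substrate by the enzyme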
# Fatty acid synthase [8] = target: T5, Fatty acid synthase; experiment: inhibition of human FAS-TE enzyme activity – biochemical, kinetic fluorescence intensity, dose response (AID 624326); format: functional;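 also: rate of fluorescence rise from hydrolysis of a fluorogenic O-methyl fluorescein ester substrate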
# Large T antigen = Large T antigen (Simian virus 40, UniProt P03070); format: functional, Betapolyomavirus macacae;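 also: Confirmatory-stage PubChem screen for compounds that inhibit SV40 T antigen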
# [9] = target: T6, Histone-lysine N-methyltransferase NSD2 (Homo sapiens, UniProt O96028); format: biochemical
# T6 sequence (O96028 whole entry): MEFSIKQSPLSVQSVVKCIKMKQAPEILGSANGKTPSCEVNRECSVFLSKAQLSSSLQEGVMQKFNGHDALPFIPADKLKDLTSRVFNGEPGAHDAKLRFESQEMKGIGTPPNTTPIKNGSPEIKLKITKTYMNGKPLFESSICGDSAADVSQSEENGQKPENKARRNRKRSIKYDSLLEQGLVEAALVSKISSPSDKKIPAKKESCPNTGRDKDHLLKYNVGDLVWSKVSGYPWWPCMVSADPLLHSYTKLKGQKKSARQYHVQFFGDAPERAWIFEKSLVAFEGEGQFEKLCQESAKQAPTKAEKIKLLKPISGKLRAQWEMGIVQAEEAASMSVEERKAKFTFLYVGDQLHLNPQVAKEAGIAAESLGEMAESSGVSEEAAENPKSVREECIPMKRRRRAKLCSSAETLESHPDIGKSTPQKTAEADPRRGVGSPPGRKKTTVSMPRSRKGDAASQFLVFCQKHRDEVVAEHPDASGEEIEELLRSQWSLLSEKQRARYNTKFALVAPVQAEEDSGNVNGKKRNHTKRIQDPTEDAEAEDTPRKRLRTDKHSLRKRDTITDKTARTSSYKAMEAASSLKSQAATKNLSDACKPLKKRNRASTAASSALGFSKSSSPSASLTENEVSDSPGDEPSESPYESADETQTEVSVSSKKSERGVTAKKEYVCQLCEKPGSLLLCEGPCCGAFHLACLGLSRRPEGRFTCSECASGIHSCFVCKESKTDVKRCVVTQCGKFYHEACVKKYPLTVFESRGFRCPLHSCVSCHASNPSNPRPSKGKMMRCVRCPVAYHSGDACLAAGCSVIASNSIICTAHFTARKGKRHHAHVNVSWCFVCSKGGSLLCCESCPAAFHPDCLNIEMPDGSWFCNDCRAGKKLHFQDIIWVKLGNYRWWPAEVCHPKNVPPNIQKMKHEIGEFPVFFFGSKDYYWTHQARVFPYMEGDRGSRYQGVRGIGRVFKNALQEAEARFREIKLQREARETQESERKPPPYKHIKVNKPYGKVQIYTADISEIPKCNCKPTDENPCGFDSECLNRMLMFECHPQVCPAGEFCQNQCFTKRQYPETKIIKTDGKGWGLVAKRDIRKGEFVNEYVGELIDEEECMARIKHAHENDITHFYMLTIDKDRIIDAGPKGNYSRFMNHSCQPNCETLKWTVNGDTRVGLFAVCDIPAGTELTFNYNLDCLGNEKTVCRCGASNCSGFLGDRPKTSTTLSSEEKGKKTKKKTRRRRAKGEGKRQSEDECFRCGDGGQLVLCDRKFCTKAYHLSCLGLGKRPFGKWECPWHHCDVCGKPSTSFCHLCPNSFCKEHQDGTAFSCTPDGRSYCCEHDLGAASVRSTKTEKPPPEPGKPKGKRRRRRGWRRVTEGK
# [10] = target: T7, RNA-binding protein pos-1 (Caenorhabditis elegans, UniProt G5EF15); experiment: disruptors of C. elegans POS-1 RNA interaction – biochemical, fluorescence polarization, dose response (AID 1964);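 also: purified POS-1 fused to maltose binding protein made in E. coli; potency of compounds blocking POS-1 binding to fluorescent RNA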
# T7 sequence (G5EF15 whole entry): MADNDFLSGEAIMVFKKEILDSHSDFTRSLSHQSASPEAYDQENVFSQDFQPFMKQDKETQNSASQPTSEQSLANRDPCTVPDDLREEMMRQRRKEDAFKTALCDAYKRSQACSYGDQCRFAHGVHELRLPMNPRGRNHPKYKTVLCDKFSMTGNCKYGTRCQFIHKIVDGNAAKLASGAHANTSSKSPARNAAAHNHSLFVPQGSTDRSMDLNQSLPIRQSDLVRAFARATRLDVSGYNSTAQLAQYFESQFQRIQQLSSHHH
# Nonstructural protein 1 = Nonstructural protein 1 (Influenza A virus, UniProt Q194T2); format: functional, Influenza A virus (A/California/07/2009(H1N1))
# [11] = target: T8, Zinc finger protein mex-5 (Caenorhabditis elegans, UniProt Q9XUB2); experiment: potency of MEX-5 RNA-binding blockers – biochemical, C. elegans, fluorescence polarization, dose response (AID 1960)
# T8 sequence (Q9XUB2 whole entry): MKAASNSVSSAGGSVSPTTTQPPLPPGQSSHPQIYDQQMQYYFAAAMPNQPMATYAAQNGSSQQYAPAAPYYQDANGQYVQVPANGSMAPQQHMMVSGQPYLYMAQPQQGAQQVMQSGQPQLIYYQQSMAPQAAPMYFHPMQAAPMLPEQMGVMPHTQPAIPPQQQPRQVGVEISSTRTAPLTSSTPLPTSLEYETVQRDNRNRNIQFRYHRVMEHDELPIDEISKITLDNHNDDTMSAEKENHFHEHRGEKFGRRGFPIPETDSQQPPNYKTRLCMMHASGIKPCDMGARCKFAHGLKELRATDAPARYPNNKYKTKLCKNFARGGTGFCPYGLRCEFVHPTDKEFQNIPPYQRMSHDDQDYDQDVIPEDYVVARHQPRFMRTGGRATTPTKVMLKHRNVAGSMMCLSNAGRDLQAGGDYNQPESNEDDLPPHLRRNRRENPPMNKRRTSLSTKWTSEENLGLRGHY
# Genome polyprotein = Genome polyprotein (dengue virus type 2, UniProt P29990); experiment: flavivirus cap methylation enzyme inhibition – biochemical, confirmation dose response, primary screen (AID 588689); format: functional
# Sequence of Genome polyprotein (P29990 2492-3391 limits assumed): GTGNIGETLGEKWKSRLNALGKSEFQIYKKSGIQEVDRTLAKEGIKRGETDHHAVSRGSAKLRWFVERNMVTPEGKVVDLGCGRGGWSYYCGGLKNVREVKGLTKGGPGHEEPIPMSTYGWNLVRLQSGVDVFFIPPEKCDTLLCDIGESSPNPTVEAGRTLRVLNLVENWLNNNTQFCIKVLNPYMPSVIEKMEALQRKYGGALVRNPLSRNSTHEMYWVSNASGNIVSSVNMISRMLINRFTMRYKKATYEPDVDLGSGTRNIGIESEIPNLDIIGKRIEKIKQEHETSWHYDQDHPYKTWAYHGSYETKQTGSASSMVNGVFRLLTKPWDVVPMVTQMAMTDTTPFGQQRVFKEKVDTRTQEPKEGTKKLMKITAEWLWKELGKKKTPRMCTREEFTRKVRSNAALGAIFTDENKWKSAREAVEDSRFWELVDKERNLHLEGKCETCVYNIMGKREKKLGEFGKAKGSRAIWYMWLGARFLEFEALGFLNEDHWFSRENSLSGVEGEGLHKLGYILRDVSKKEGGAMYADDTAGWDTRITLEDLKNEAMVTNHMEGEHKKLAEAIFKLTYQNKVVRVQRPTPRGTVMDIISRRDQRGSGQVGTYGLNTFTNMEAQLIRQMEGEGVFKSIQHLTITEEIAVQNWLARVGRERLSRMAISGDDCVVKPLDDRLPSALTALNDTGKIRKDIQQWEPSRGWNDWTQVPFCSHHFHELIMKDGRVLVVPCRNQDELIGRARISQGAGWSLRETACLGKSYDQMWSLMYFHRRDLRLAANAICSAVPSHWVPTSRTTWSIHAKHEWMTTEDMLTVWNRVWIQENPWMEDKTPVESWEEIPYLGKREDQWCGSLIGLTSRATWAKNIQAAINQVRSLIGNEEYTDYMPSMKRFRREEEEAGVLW
# Sequence of Glucose-6-phosphate 1-dehydrogenase (P11413 whole entry): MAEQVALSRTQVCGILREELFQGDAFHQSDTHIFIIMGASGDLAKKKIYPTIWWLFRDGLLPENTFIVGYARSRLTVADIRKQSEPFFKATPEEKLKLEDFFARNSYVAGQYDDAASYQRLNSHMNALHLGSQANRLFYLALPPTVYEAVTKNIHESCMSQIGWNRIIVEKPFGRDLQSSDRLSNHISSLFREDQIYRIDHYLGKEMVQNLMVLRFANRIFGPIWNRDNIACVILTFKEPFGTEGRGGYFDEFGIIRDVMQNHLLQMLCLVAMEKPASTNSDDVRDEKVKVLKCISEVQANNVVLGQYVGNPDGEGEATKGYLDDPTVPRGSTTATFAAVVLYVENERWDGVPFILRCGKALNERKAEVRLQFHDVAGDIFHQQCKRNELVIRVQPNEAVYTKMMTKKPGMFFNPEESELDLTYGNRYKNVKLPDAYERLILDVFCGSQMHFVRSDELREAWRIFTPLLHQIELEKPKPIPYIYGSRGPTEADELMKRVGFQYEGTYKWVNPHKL
# Sequence of Large T antigen (P03070 whole entry): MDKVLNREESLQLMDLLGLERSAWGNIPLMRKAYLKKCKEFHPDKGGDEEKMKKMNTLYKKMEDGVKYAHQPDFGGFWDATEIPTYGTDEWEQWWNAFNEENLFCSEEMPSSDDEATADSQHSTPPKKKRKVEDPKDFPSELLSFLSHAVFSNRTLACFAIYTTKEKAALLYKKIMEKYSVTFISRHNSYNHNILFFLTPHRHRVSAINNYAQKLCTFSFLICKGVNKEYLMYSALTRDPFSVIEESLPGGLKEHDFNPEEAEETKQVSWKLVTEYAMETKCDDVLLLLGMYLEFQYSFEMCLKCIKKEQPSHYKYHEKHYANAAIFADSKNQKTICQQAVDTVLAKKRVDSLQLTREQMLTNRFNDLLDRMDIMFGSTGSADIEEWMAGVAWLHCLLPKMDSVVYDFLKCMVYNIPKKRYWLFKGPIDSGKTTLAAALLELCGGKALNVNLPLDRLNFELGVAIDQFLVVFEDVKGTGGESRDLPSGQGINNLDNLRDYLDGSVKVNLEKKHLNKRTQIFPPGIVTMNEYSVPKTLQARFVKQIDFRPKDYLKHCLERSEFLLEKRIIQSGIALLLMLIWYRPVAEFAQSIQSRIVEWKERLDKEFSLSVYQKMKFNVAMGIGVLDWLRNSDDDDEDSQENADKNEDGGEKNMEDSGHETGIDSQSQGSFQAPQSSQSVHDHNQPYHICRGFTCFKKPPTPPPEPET
# T5 sequence (P49327 whole entry): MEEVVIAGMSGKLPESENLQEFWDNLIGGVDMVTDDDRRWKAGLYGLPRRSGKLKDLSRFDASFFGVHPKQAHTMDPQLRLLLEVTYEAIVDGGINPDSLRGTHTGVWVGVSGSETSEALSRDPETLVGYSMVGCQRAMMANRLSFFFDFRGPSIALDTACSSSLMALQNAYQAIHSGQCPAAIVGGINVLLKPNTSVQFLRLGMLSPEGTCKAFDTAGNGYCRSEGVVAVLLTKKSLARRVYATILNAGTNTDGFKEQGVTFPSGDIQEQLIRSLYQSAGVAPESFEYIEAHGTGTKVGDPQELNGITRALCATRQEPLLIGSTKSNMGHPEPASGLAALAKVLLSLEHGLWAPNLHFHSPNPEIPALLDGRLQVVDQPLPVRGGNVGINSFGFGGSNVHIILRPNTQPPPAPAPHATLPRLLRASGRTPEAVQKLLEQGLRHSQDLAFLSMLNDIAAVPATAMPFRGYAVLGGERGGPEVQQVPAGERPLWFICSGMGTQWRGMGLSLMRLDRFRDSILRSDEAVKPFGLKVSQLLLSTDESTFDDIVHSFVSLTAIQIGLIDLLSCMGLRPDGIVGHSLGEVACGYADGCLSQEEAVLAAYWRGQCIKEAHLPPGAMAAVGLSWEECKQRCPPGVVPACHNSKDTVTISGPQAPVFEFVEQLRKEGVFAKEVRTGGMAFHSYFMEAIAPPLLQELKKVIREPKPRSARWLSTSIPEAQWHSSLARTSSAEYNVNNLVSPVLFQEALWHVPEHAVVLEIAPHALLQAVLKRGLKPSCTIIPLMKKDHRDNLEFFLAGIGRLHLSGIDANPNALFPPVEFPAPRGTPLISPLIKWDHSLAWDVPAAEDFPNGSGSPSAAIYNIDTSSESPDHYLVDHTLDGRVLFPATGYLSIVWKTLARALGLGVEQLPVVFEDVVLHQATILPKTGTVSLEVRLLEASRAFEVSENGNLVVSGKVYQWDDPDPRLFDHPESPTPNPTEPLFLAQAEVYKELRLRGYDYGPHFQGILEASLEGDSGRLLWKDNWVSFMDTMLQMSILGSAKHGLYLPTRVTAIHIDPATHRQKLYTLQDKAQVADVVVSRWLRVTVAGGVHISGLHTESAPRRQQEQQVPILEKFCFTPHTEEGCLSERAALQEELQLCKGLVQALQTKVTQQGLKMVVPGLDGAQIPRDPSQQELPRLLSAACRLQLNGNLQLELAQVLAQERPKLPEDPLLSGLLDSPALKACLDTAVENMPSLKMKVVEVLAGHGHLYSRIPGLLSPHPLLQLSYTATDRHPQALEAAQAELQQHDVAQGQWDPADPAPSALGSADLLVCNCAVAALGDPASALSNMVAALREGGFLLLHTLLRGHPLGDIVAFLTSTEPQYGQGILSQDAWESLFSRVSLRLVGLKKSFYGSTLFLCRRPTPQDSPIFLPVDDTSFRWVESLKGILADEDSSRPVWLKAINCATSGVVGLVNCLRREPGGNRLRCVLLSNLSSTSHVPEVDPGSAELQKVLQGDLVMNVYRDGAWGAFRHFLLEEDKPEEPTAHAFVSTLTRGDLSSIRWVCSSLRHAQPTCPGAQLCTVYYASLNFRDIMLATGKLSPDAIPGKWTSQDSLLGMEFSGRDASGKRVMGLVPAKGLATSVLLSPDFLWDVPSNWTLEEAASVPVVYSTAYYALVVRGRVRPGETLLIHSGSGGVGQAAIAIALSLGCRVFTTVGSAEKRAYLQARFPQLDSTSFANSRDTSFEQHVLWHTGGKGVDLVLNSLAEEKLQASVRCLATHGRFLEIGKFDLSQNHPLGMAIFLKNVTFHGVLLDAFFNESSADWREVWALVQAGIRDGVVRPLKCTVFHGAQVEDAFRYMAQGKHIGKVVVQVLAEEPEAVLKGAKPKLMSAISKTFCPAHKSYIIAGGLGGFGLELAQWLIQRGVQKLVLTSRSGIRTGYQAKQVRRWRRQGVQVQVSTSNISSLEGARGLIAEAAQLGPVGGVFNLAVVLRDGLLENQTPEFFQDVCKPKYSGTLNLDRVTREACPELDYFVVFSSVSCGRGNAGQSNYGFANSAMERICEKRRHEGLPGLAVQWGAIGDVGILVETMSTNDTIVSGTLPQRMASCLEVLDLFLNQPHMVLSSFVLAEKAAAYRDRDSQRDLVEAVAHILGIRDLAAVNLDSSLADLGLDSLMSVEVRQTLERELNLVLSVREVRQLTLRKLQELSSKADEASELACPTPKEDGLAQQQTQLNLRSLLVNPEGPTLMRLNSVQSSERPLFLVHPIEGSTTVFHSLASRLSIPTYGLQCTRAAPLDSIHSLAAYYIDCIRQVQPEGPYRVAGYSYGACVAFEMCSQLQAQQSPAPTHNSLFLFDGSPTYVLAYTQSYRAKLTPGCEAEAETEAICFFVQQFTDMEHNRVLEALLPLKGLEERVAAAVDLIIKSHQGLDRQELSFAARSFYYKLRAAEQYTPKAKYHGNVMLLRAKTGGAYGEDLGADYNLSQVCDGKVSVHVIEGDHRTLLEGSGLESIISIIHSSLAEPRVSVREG
# Sequence of Induced myeloid leukemia cell differentiation protein Mcl-1 (Q07820 whole entry): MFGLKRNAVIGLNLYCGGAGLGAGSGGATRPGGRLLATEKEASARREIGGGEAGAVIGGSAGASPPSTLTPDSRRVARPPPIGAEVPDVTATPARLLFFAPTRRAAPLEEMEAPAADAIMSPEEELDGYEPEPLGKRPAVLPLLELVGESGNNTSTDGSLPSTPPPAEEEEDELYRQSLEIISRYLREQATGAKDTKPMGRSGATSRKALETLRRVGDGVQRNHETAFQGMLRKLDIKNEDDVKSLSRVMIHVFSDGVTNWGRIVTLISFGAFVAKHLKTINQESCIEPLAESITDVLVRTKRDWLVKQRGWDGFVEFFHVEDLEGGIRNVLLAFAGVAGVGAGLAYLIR
smiles,measurement,setting,value
Cc1ccc(C(=O)Nc2nnc(-c3ccncc3)o2)cc1,CC50,[1],> 20 µM (active)
same,IC50,cells,8.2 µM (active)
Cc1ccc(C(=O)CNc2cc(C)ccc2C)cc1,EC50,Beta-galactosidase,> 40 µM (inactive)
same,IC50,[2],9.85 µM (active)
Cc1c(C(=O)N(Cc2ccccc2Cl)C2CCS(=O)(=O)C2)oc2ccccc12 (stereo not given),IC50,[3],40.3 µM (inactive)
Cc1nnc(Sc2cc(NCCO)c([N+](=O)[O-])c3nonc23)s1,IC50,[4],6.12 µM (active)
same,EC50,Protein RecA,12.4 µM (active)
same,AC50,[5],19.8 µM (inconclusive)
same,IC50,[6],> 50 µM (not active)
same,IC50,Fatty acid synthase [7],6.34 µM (active)
same,IC50,Fatty acid synthase [8],5.35 µM (active)
same,IC50,[3],> 80 µM (inactive)
O=C(CCNc1cccc(Cl)c1)c1ccco1,CC50,[1],18.8 µM (active)
same,IC50,cells,18 µM (active)
COc1ccc(OCc2nnc3n2N=C(c2ccccc2)C(CC(=O)O)S3)cc1 (stereo not given),IC50,[3],> 80 µM (inactive)
COc1cc(N)c2ncccc2c1Cl,IC50,[3],69.4 µM (inactive)
CSC1=NSC2=NC(=O)/C(=C\c3coc4ccccc4c3=O)C(=N)N12,IC50,Large T antigen,67.1 µM (active)
same,AC50,[9],11.7 µM (active)
CCN(CC)C(=O)c1ccc2c(c1)C1C(Cl)C(Sc3ccccc3[N+](=O)[O-])CC1C(C(=O)O)N2 (stereo not given),IC50,Large T antigen,35.4 µM (active)
same,EC50,[10],> 300 µM (inconclusive)
same,IC50,Nonstructural protein 1,17.7 µM (active)
same,EC50,Protein RecA,17 µM (active)
same,AC50,[5],4.63 µM (active)
same,EC50,[11],15.4 µM (inconclusive)
same,IC50,Genome polyprotein,59.1 µM (active)
